Source: patent US11608341B2, “Substituted tetrahydropyrazolo[3,4-d]pyrimidines and tetrahydropyrazolo[4,3-d]pyrimidines as C5A receptor modulators” (Idorsia Pharmaceuticals Ltd., priority 2018, dated 2023)
pIC50: −log10 of the molar value.

Target: T1, C5AR1 (Homo sapiens, UniProt P21730)
T1 construct: host or cells: CHO-K1
T1 sequence (P21730 1-350): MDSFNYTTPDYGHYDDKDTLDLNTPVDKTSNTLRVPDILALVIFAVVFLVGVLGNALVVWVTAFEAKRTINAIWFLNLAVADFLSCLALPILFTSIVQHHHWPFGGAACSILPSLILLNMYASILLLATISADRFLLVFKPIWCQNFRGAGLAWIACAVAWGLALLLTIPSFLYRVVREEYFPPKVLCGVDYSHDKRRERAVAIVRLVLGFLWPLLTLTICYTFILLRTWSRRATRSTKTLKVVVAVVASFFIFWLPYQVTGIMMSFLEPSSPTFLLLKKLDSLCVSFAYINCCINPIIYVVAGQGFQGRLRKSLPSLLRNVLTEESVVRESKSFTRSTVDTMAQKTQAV
Test: In vitro assay: antagonism of C5a-induced beta-arrestin recruitment (PathHunter) in CHO-K1 C5AR1 beta-arrestin cell line
Assay type: cell-based
Conditions: antagonistic activity, 1-10 nM C5a agonist, geometric mean where several measurements, read-out: C5aR IC50
Experimental: 5 μl Antagonist at 6-fold end concentration or DMSO control is added to assay medium and subsequently 5 μl 1-10 nM C5a agonist at 6 fold end concentration. Cells are centrifuged for 1 min at 1000 rpm and incubated for 1.5 hour in at 37° C. Plates are equilibrated at room temperature for several minutes before adding 12 μl/well Detection Reagent (PathHunter Detection Kit, DiscoverX, Cat #93-0001). Plates are centrifuged for 1 min at 1000 rpm and incubated for 45 minutes at RT before being measured on a Fluostar Optima, BMG Labtech. IC50 values are calculated from a serial dilution range of antagonist using inhouse software and given in nmol/l.
The calculated IC50 values may fluctuate depending on the daily cellular assay performance. Fluctuations of this kind are known to those skilled in the art. Average IC50 values from several measurements are given as geometric mean values.

| SMILES | pIC50 |
| --- | --- |
| Cc1cccc(C)c1N1CCC(N2Cc3cn(C)nc3N(Cc3ccccc3C(F)(F)F)C2=O)C1 (single isomer, unassigned) [Example 58] | 6.62 |
| Cc1cccc(F)c1N1CCC(N2C(=O)N(Cc3ccccc3C(F)(F)F)c3cn(C)nc3C2C)CC1 (single isomer, unassigned) [Example 202] | 6.04 |
| Cc1cccc(F)c1N1CCC(N2C(=O)N(Cc3ccccc3C(F)(F)F)c3cn(C)nc3C2C)CC1 (single isomer, unassigned) [Example 203] | 7.13 |
| Cc1cccc(F)c1N1CCC(N2C(=O)N(Cc3ccccc3C(F)(F)F)c3nn(C)cc3C2C)CC1 (single isomer, unassigned) [Example 221] | 7.11 |
| Cc1cccc(F)c1N1CCCC(N2Cc3cn(C)nc3N(Cc3ccccc3C(F)(F)F)C2=O)CC1 (single isomer, unassigned) [Example 225] | 7.47 |
| Cc1cccc(F)c1N1CCC(C)(N2Cc3cn(C)nc3N(Cc3ccccc3C(F)(F)F)C2=O)C1 (single isomer, unassigned) [Example 234] | 6.96 |
| Cc1cccc(F)c1N1CCC(C)(N2Cc3cn(C)nc3N(Cc3ccccc3C(F)(F)F)C2=O)C1 (single isomer, unassigned) [Example 235] | 6.77 |
| Cc1cccc(F)c1N1CCCC(N2Cc3cn(C)nc3N(Cc3ccccc3C(F)(F)F)C2=O)C1 (single isomer, unassigned) [Example 241] | 6.95 |
| Cc1cccc(F)c1N1CCCC(N2Cc3cn(C)nc3N(Cc3ccccc3C(F)(F)F)C2=O)C1 (single isomer, unassigned) [Example 242] | 6.20 |
| Cc1cccc(F)c1N1CCC(N2C(=O)N(Cc3ccccc3C(F)(F)F)c3cn(CC(C)(F)F)nc3C2C)CC1 (single isomer, unassigned) [Example 254] | 6.72 |
| Cc1cccc(F)c1N1CCC(N2C(=O)N(Cc3ccccc3C(F)(F)F)c3cnn(CC(C)(F)F)c3C2C)CC1 (single isomer, unassigned) [Example 255] | 7.06 |
| Cc1cccc(F)c1N1CCC(N2C(=O)N(Cc3ccccc3C(F)(F)F)c3cnn(CC(C)(F)F)c3C2C)CC1 (single isomer, unassigned) [Example 256] | 6.24 |
| Cc1cccc(F)c1N1CCC(N2Cc3nn(C)cc3N(C(C)c3ccccc3C(F)(F)F)C2=O)CC1 (single isomer, unassigned) [Example 261] | 6.24 |
| Cc1cccc(F)c1N1CCC(N2Cc3nn(C)cc3N(C(C)c3ccccc3C(F)(F)F)C2=O)CC1 (single isomer, unassigned) [Example 262] | 6.33 |
| Cc1cccc(F)c1N1CCC(N2C(=O)N(Cc3ccccc3C(F)(F)F)c3cn(C4CC4)nc3C2C)CC1 (single isomer, unassigned) [Example 266] | 6.45 |
| COc1nccc(C)c1N1CCC(N2C(=O)N(Cc3ccccc3C3CC3)c3c[nH]nc3C2C)CC1 (single isomer, unassigned) [Example 274] | 7.43 |
| Cc1cccc(F)c1N1CCC(N2C(=O)N(Cc3ccccc3C3CC3)c3cn(CC(C)(F)F)nc3C2C)CC1 (single isomer, unassigned) [Example 276] | 6.31 |
| Cc1cccc(F)c1N1CCC(N2C(=O)N(Cc3ccccc3C3CC3)c3cn(CC(C)(F)F)nc3C2C)CC1 (single isomer, unassigned) [Example 277] | 7.25 |
| Cc1cccc(F)c1N1CCC(N2C(=O)N(Cc3ccccc3C3CC3)c3cn(C4CC4)nc3C2C)CC1 (single isomer, unassigned) [Example 278] | 6.31 |
| Cc1cccc(F)c1N1CCC(N2C(=O)N(Cc3ccccc3C3CC3)c3cn(C4CC4)nc3C2C)CC1 (single isomer, unassigned) [Example 279] | 7.55 |
| COc1nccc(C)c1N1CCC(N2Cc3cn(C)nc3N(C(C)c3ccccc3C(F)(F)F)C2=O)CC1 (single isomer, unassigned) [Example 286] | 7.48 |
| COc1nccc(C)c1N1CCC(N2Cc3cn(C)nc3N(C(C)c3ccccc3C(F)(F)F)C2=O)CC1 (single isomer, unassigned) [Example 287] | 7.43 |
| CC(c1ccccc1C(F)(F)F)N1C(=O)N(C2CCN(c3c(F)cccc3C#N)CC2)Cc2cn(C)nc21 (single isomer, unassigned) [Example 288] | 7.12 |
| CC(c1ccccc1C(F)(F)F)N1C(=O)N(C2CCN(c3c(F)cccc3C#N)CC2)Cc2cn(C)nc21 (single isomer, unassigned) [Example 289] | 7.26 |
| CC(c1ccccc1C(F)(F)F)N1C(=O)N(C2CCN(c3c(F)cccc3F)CC2)Cc2cn(C)nc21 (single isomer, unassigned) [Example 290] | 6.45 |
| CC(c1ccccc1C(F)(F)F)N1C(=O)N(C2CCN(c3c(F)cccc3F)CC2)Cc2cn(C)nc21 (single isomer, unassigned) [Example 291] | 6.94 |
| COc1nccc(C)c1N1CCC(N2C(=O)N(Cc3ccccc3C3CC3)c3cn(C4CC4)nc3C2C)CC1 (single isomer, unassigned) [Example 292] | 6.29 |
| COc1nccc(C)c1N1CCC(N2C(=O)N(Cc3ccccc3C(F)(F)F)c3cn(C4CC4)nc3C2C)CC1 (single isomer, unassigned) [Example 297] | 6.49 |
| COc1nccc(C)c1N1CCC(N2C(=O)N(Cc3ccccc3C(F)(F)F)c3cn(C)nc3C2C)CC1 (single isomer, unassigned) [Example 298] | 7.54 |
| Cc1cccc(F)c1N1CCC(N2C(=O)N(Cc3ccccc3C(F)(F)F)c3nn(CC(C)(F)F)cc3C2C)CC1 (single isomer, unassigned) [Example 306] | 6.55 |

Molecules with a higher pIC50, results first:

| pIC50 | SMILES |
| --- | --- |
| 7.72 | Cc1cccc(C)c1N1CCC(N2Cc3cn(C)nc3N(Cc3ccccc3C(F)(F)F)C2=O)C1 (single isomer, unassigned) [Example 57] |
| 8.00 | Cc1cccc(F)c1N1CCC(N2Cc3cn(CC(C)F)nc3N(Cc3ccccc3C(F)(F)F)C2=O)CC1 (single isomer, unassigned) [Example 185] |
| 8.10 | Cc1cccc(F)c1N1CCC(N2Cc3cn(CC(C)F)nc3N(Cc3ccccc3C(F)(F)F)C2=O)CC1 (single isomer, unassigned) [Example 186] |
| 7.89 | Cc1cccc(F)c1N1CCC(N2Cc3cn(C(C)C(F)F)nc3N(Cc3ccccc3C(F)(F)F)C2=O)CC1 (single isomer, unassigned) [Example 187] |
| 8.00 | Cc1cccc(F)c1N1CCC(N2Cc3cn(C(C)C(F)F)nc3N(Cc3ccccc3C(F)(F)F)C2=O)CC1 (single isomer, unassigned) [Example 188] |
| 8.00 | Cc1cccc(F)c1N1CCC(N2Cc3cn(CC4CC4(F)F)nc3N(Cc3ccccc3C(F)(F)F)C2=O)CC1 (single isomer, unassigned) [Example 189] |
| 7.96 | Cc1cccc(F)c1N1CCC(N2Cc3cn(CC4CC4(F)F)nc3N(Cc3ccccc3C(F)(F)F)C2=O)CC1 (single isomer, unassigned) [Example 190] |
| 8.10 | Cc1cccc(F)c1N1CCC(N2C(=O)N(Cc3ccccc3C(F)(F)F)c3nn(C)cc3C2C)CC1 (single isomer, unassigned) [Example 220] |
| 7.62 | Cc1cccc(F)c1N1CCCC(N2Cc3cn(C)nc3N(Cc3ccccc3C(F)(F)F)C2=O)CC1 (single isomer, unassigned) [Example 226] |
| 7.68 | Cc1cccc(F)c1N1CCC(N2Cc3cn(C)nc3N(C(C)c3ccccc3C(F)(F)F)C2=O)CC1 (single isomer, unassigned) [Example 246] |
| 7.68 | Cc1cccc(F)c1N1CCC(N2Cc3cn(C)nc3N(C(C)c3ccccc3C(F)(F)F)C2=O)CC1 (single isomer, unassigned) [Example 247] |
| 7.80 | Cc1cccc(F)c1N1CCC(N2C(=O)N(Cc3ccccc3C(F)(F)F)c3cn(CC(C)(F)F)nc3C2C)CC1 (single isomer, unassigned) [Example 253] |
| 7.68 | Cc1cccc(F)c1N1CCC(N2C(=O)N(Cc3ccccc3C(F)(F)F)c3c[nH]nc3C2C)CC1 (single isomer, unassigned) [Example 263] |
| 7.92 | Cc1cccc(F)c1N1CCC(N2C(=O)N(Cc3ccccc3C(F)(F)F)c3cn(C4CC4)nc3C2C)CC1 (single isomer, unassigned) [Example 265] |
| 7.70 | Cc1cccc(F)c1N1CCC(N2C(=O)N(Cc3ccccc3C3CC3)c3c[nH]nc3C2C)CC1 (single isomer, unassigned) [Example 275] |
| 7.70 | COc1nccc(C)c1N1CCC(N2C(=O)N(Cc3ccccc3C3CC3)c3cn(C4CC4)nc3C2C)CC1 (single isomer, unassigned) [Example 293] |
| 7.60 | COc1nccc(C)c1N1CCC(N2C(=O)N(Cc3ccccc3C(F)(F)F)c3c[nH]nc3C2C)CC1 (single isomer, unassigned) [Example 295] |
| 7.82 | COc1nccc(C)c1N1CCC(N2C(=O)N(Cc3ccccc3C(F)(F)F)c3cn(C4CC4)nc3C2C)CC1 (single isomer, unassigned) [Example 296] |
| 7.80 | Cc1cccc(F)c1N1CCC(N2C(=O)N(Cc3ccccc3C(F)(F)F)c3nn(CC(C)(F)F)cc3C2C)CC1 (single isomer, unassigned) [Example 305] |
